Where a SMILES comes first, the peptide text is derived from it. [ ]: non-standard residue; d: D form. Nspe = C[C@H](NCC(=O)O)c1ccccc1; NhArg = N=C(N)NCCCCNCC(=O)O; Nlys = NCCCCNCC(=O)O
What was measured:
Type in all cases: cell-based
[1] = system: Trypanosoma brucei rhodesiense STIB900; settings: for IC50: 70 h; for active against T. brucei rhodesiense: statement in words
Description: This stock was isolated in 1982 from a human patient in Tanzania and after several mouse passages cloned and adapted to axenic culture conditions. Minimum Essential Medium (50 μl) supplemented with 25 mM HEPES, 1 g/l additional glucose, 1% MEM non-essential amino acids (100×), 0.2 mM 2-mercaptoethanol, 1 mM Na-pyruvate and 15% heat inactivated horse serum was added to each well of a 96-well microtiter plate. Serial drug dilutions of eleven 3-fold dilution steps covering a range from 100 to 0.002 μg/ml were prepared. Then 4×10^3 bloodstream forms of T. b. rhodesiense STIB 900 in 50 μl was added to each well and the plate incubated at 37° C. under a 5% CO2 atmosphere for 70 h. 10 μl Alamar Blue (resazurin, 12.5 mg in 100 ml double-distilled water) was then added to each well and incubation continued for a further 2-4 h. Then the plates were read with a Spectramax Gemini XS microplate fluorometer (Molecular Devices Cooperation, Sunnyvale, Calif., USA) using an excitation wave length of 536 nm and an emission wave length of 588 nm. The IC50 values were calculated by linear regression from the sigmoidal dose inhibition curves using SoftmaxPro software (Molecular Devices Cooperation, Sunnyvale, Calif., USA). Melarsoprol (Arsobal Sanofi-Aventis, received from WHO) is used as control.

[2] = system: E. coli (ATCC 29522) biofilm; test: Single species biofilm treatment, crystal violet assay; settings: 100 μM peptoid, 24 hours, FIG. 17C
Description: (§1) C. albicans (NCTC 3179) was subcultured aerobically on Sabouraud agar plates and propagated in yeast peptone dextrose broth. E. coli (ATCC 29522) and S. aureus (NCTC 6571) were grown on blood agar plates and propagated in brain heart infusion (BHI) broth.
(§2) Overnight cultures of C. albicans were washed and resuspended in a modified RPMI-1640 (Sigma-Aldrich, St Louis, USA) medium to yield an inoculum of 1.0×10^6 cells/ml. Overnight cultures of S. aureus or E. coli were washed and resuspended in brain heart infusion broth (Oxoid, Basingstoke, UK) to yield an inoculum of 5.0×10^6 cells/ml. A total volume of 100 μl of each inoculum was added to microtitre plate wells (Thermo Fisher Scientific, Roskilde, Denmark). An initial biofilm was allowed to form for 4 hours. Wells were washed three times with 200 μl PBS to facilitate removal of planktonic cells and the biofilms were then treated with 100 μM of peptoids 1-4 in the appropriate broth. Plates were incubated for a further 24 hours to allow biofilm maturation. After removal of planktonic cells by washing, biofilms were quantified by the crystal violet assay or by PMA-qPCR.
(§3) Biofilm quantification by crystal violet assay Washed biofilms were fixed with 100 μl methanol for 10 minutes. Following removal of methanol, the wells were air dried and stained with crystal violet solution (Clin-Tech Ltd, Guildford, UK) for 20 minutes at room temperature. Excess stain was removed by washing, the plate was then air dried and bound crystal violet was re-solubilised in 16 μl 33% acetic acid prior to reading at 570 nm in a microtitre plate reader (Tecan GENios, Ziirich, Switzerland).

[3] = system: erythrocytic stages of P. falciparum; settings: for active against P. falciparum: statement in words; for IC50: strain (NF54 or K1) not given
Description: In vitro activity against erythrocytic stages of P. falciparum was determined using a 3H-hypoxanthine incorporation assay using the drug sensitive NF54 strain (Schipol airport) or the chloroquine and pyrimethamine resistant K1 strain that originate from Thailand and the standard drug chloroquine (Sigma C6628). Compounds were dissolved in DMSO at 10 mg/ml and added to parasite cultures incubated in RPMI 1640 medium without hypoxanthine, supplemented with HEPES (5.94 g/l), NaHCO3 (2.1 g/1), neomycin (100 U/ml), Albumax® (5 g/l) and washed human red cells A^+ at 2.5% haematocrit (0.3% parasitaemia). Serial drug dilutions of eleven 3-fold dilution steps covering a range from 100 to 0.002 μg/ml were prepared. The 96-well plates were incubated in a humidified atmosphere at 37° C.; 4% CO2, 3% O2, 93% N2. After 48 h 50 μl of 3H-hypoxanthine (=0.5 μCi) was added to each well of the plate. The plates were incubated for a further 24 h under the same conditions. The plates were then harvested with a Betaplate™ cell harvester (Wallac, Zurich, Switzerland), and the red blood cells transferred onto a glass fibre filter then washed with distilled water. The dried filters were inserted into a plastic foil with 10 ml of scintillation fluid, and counted in a Betaplate™ liquid scintillation counter (Wallac, Zurich, Switzerland). IC50 values were calculated from sigmoidal inhibition curves by linear regression using Microsoft Excel. Chloroquine and artemisinin are used as control.

[4] = system: S. aureus (NCTC 6571) biofilm; test: Single species biofilm treatment, crystal violet assay; settings: 100 μM peptoid, 24 hours, FIG. 17B
Description: as §1, §2, §3

SMILES | IC50 [1] [µM] | active against T. brucei rhodesiense [1] | activity against the E. coli biofilm [2] | active against P. falciparum [3] | IC50 [3] [µM] | activity against the S. aureus biofilm [4]
C[C@@H](c1ccccc1)N(CC(N)=O)C(=O)CN(C(=O)CN(CCCCN)C(=O)CN(C(=O)CN(C(=O)CN(CCCCNC(=N)N)C(=O)CN(C(=O)CN(C(=O)CN(CCCCN)C(=O)CN(C(=O)CN(C(=O)CNCCCCNC(=N)N)[C@@H](C)c1ccccc1)[C@@H](C)c1ccccc1)[C@@H](C)c1ccccc1)[C@@H](C)c1ccccc1)[C@@H](C)c1ccccc1)[C@@H](C)c1ccccc1)[C@@H](C)c1ccccc1 [Peptoid 4, [(NhArg-Nspe-Nspe)(NLys-Nspe-Nspe)]2] (H-[NhArg][Nspe][Nspe][Nlys][Nspe][Nspe][NhArg][Nspe][Nspe][Nlys][Nspe][Nspe]-NH2; N-terminus assumed) | 16.7 | active | strongest anti-bacterial activity | active | 2.72 | –
C[C@@H](c1ccccc1)N(CC(N)=O)C(=O)CN(C(=O)CN(CCCCNC(=N)N)C(=O)CN(C(=O)CN(C(=O)CN(CCCCNC(=N)N)C(=O)CN(C(=O)CN(C(=O)CN(CCCCN)C(=O)CN(C(=O)CN(C(=O)CNCCCCN)[C@@H](C)c1ccccc1)[C@@H](C)c1ccccc1)[C@@H](C)c1ccccc1)[C@@H](C)c1ccccc1)[C@@H](C)c1ccccc1)[C@@H](C)c1ccccc1)[C@@H](C)c1ccccc1 [Peptoid 1, (NLys-Nspe-Nspe)2(NhArg-Nspe-Nspe)2] (H-[Nlys][Nspe][Nspe][Nlys][Nspe][Nspe][NhArg][Nspe][Nspe][NhArg][Nspe][Nspe]-NH2; N-terminus assumed) | 6.73 | active | – | active | 1.5 | strongest anti-bacterial activity

Reference: patent publication US20180201647A1, “Peptoid” (The University of Durham, priority 2015, published 2018)
